Measurements reported in patent publication US9096624B2 (OSI Pharmaceuticals, LLC, priority 2009, dated 2015).

Assays:
FAK [1] = target: T1, FAK (Homo sapiens, UniProt Q05397); assay: biochemical
FAK [2] = target: T1, FAK; assay: Cell-based capture ELISA for inhibition of FAK autophosphorylation [pY397] in MiaPaCa2 cells
Experimental: Cell-Based Assays for Inhibition of FAK Autophosphorylation: MiaPaCa2 and U87MG
ELISA kit from Invitrogen (KHO0441).
Reagents Provided in Biosource FAK [pY397]
The cells were then suspended in cell assay medium.

[3] = MIA-PaCa2 cells, + 50% mouse plasma (Table 2), read-out: Mean FAK Cell Mechanistic IC50 + 50% mP MIA-PaCa2
[4] = MIA-PaCa2 cells, + 50% mouse plasma (Table 3), read-out: Mean FAK Cell Mechanistic IC50 + 50% mP MIA-PaCa2
[5] = MIA-PaCa2 cells on fibronectin, 2 h, no plasma, read-out: Mean FAK Cell Mechanistic IC50 MIA-PaCa2
[6] = MIA-PaCa2 cells, + 50% human plasma, read-out: Mean FAK Cell Mechanistic IC50 + 50% hP MIA-PaCa2

T1 sequence (Q05397 whole entry): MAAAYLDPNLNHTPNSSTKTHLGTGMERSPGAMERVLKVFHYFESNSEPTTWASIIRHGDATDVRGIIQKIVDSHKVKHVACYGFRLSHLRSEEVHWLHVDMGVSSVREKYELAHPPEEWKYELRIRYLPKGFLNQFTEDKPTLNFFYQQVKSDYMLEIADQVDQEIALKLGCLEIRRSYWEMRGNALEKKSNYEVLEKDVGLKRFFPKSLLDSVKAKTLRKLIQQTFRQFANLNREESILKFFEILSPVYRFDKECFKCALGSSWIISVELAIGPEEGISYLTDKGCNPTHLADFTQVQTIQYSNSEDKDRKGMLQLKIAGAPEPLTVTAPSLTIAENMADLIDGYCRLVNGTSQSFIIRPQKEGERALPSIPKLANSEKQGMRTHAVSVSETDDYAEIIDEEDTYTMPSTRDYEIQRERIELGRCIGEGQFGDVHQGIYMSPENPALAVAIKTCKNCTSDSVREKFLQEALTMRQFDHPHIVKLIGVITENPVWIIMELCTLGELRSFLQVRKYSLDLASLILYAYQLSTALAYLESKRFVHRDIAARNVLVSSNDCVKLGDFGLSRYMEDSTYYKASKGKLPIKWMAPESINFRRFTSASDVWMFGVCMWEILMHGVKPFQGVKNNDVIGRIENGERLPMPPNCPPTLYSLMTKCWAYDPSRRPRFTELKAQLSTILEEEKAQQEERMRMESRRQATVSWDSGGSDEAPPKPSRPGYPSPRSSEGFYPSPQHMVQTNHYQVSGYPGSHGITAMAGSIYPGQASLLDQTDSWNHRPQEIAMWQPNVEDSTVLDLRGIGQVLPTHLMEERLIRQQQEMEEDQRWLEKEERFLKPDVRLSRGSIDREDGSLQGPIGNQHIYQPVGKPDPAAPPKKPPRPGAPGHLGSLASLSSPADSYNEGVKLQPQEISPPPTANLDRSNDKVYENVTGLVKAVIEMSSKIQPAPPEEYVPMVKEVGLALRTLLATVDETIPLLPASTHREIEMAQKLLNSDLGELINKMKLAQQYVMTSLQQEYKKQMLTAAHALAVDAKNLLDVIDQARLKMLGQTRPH

SMILES	IC50 (FAK [1])	IC50 (FAK [2]; [3])	IC50 (FAK [2]; [4])	IC50 (FAK [2]; [5])	IC50 (FAK [2]; [6])
CCOP(=O)(Cc1ccc(Nc2ncc(C(F)(F)F)c(Nc3ccc([C@H]4CC[C@H](C(=O)O)CC4)c4c3C(=O)N(C)C4)n2)c(OC)c1)OCC [Example 90, Trans-4-(7-{[2-({4-[(diethoxyphosphoryl)methyl]-2-methoxyphenyl}amino)-5-(trifluoromethyl)pyrimidin-4-yl]amino}-2-methyl-1-oxo-2,3-dihydro-1H-isoindol-4-yl)cyclohexanecarboxylic acid]	< 1000 nM	< 1000 nM	–	–	–
CC(C)OP(=O)(OC(C)C)c1cccc(Nc2ncc(C(F)(F)F)c(NCc3cccnc3N(C)S(C)(=O)=O)n2)c1 [Example 58, dipropan-2-yl [3-({4-[({2-[methyl(methylsulfonyl)amino]pyridin-3-yl}methyl)amino]-5-(trifluoromethyl)pyrimidin-2-yl}amino)phenyl]phosphonate]	< 1000 nM	1000 to 10000 nM	–	–	–
CCOP(=O)(Cc1ccc(Nc2ncc(C(F)(F)F)c(Nc3ccc([C@H]4CC[C@@](C)(O)CC4)c4c3C(=O)N(C)C4)n2)c(OC)c1)OCC [Example 197, Diethyl (4-{[4-{[7-(cis-4-hydroxy-4-methylcyclohexyl)-2-methyl-3-oxo-2,3-dihydro-1H-isoindol-4-yl]amino}-5-(trifluoromethyl)pyrimidin-2-yl]amino}-3-methoxybenzyl)phosphonate]	< 1000 nM	–	< 1000 nM	–	–
CN(c1ncccc1CNc1nc(Nc2cccc(CP(C)(C)=O)c2)ncc1C(F)(F)F)S(C)(=O)=O [Example 13, N-[3-({[2-({3-[(Dimethylphosphoryl)methyl]phenyl}amino)-5-(trifluoromethyl)pyrimidin-4-yl]amino}methyl)pyridin-2-yl]-N-methylmethanesulfonamide]	< 1000 nM	< 1000 nM	–	< 1000 nM	< 1000 nM
CCOP(=O)(Cc1ccc(Nc2ncc(C(F)(F)F)c(Nc3ccc(N4CC(O)C4)c4c3C(=O)N(C)C4)n2)c(OC)c1)OCC [Example 229, Diethyl (4-{[4-{[7-(3-hydroxyazetidin-1-yl)-2-methyl-3-oxo-2,3-dihydro-1H-isoindol-4-yl]amino}-5-(trifluoromethyl)pyrimidin-2-yl]amino}-3-methoxybenzyl)phosphonate]	< 1000 nM	–	< 1000 nM	–	–
CCOP(=O)(Cc1ccc(Nc2ncc(C(F)(F)F)c(Nc3ccc(C(=O)O)c4c3C(=O)N(C)C4)n2)cc1)OCC [Example 128, 7-{[2-({4-[(Diethoxyphosphoryl)methyl]phenyl}amino)-5-(trifluoromethyl)pyrimidin-4-yl]amino}-2-methyl-1-oxo-2,3-dihydro-1H-isoindole-4-carboxylic acid]	< 1000 nM	–	1000 to 10000 nM	–	–
CCOc1cc(CP(=O)(OCC)OCC)ccc1Nc1ncc(C(F)(F)F)c(Nc2ccc([C@H]3CC[C@H](C(=O)O)CC3)c3c2C(=O)N(C)C3)n1 [Example 258, Trans-4-(7-{[2-({4-[(diethoxyphosphoryl)methyl]-2-ethoxyphenyl}amino)-5-(trifluoromethyl)pyrimidin-4-yl]amino}-2-methyl-1-oxo-2,3-dihydro-1H-isoindol-4-yl)cyclohexanecarboxylic acid]	< 1000 nM	–	< 1000 nM	–	–
CNC(=O)c1ccccc1Nc1nc(Nc2ccc(CP(C)(C)=O)cc2)ncc1C(F)(F)F [Example 16, 2-{[2-({4-[(Dimethylphosphoryl)methyl]phenyl}amino)-5-(trifluoromethyl)pyrimidin-4-yl]amino}-N-methylbenzamide]	< 1000 nM	< 1000 nM	–	< 1000 nM	< 1000 nM
COc1cc(CP(=O)(OCC(F)(F)F)OCC(F)(F)F)ccc1Nc1ncc(C(F)(F)F)c(Nc2cccc3c2C(=O)N(C)C3)n1 [Example 124, Bis(2,2,2-trifluoroethyl) [3-methoxy-4-({4-[(2-methyl-3-oxo-2,3-dihydro-1H-isoindol-4-yl)amino]-5-(trifluoromethyl)pyrimidin-2-yl}amino)benzyl]phosphonate]	< 1000 nM	–	< 1000 nM	–	–
CCOP(=O)(Cc1ccc(Nc2ncc(C(F)(F)F)c(NCc3cccnc3N(C)S(C)(=O)=O)n2)cc1)c1ccccc1 (stereo not drawn) [Example 50, Ethyl [4-({4-[({2-[methyl(methylsulfonyl)amino]pyridin-3-yl}methyl)amino]-5-(trifluoromethyl)pyrimidin-2-yl}amino)benzyl]phenylphosphinate]	< 1000 nM	1000 to 10000 nM	–	–	–
CCOP(=O)(Cc1ccc(Nc2ncc(C(F)(F)F)c(Nc3ccc(-c4cnn(C)c4)c4c3C(=O)N(C)C4)n2)c(OC)c1)OCC [Example 71, Diethyl (3-methoxy-4-{[4-{[2-methyl-7-(1-methyl-1H-pyrazol-4-yl)-3-oxo-2,3-dihydro-1H-isoindol-4-yl]amino}-5-(trifluoromethyl)pyrimidin-2-yl]amino}benzyl)phosphonate]	< 1000 nM	–	–	< 1000 nM	< 1000 nM
CCOP(=O)(Cc1ccc(Nc2ncc(C(F)(F)F)c(Nc3ccc([C@H]4CC[C@](C)(O)CC4)c4c3C(=O)N(C)C4)n2)cc1)OCC [Example 183, Diethyl (4-{[4-{[7-(trans-4-hydroxy-4-methylcyclohexyl)-2-methyl-3-oxo-2,3-dihydro-1H-isoindol-4-yl]amino}-5-(trifluoromethyl)pyrimidin-2-yl]amino}benzyl)phosphonate]	< 1000 nM	–	< 1000 nM	–	–
CC(C)P(=O)(Cc1ccc(Nc2ncc(C(F)(F)F)c(NCc3cccnc3N(C)S(C)(=O)=O)n2)cc1)C(C)C [Example 8, N-[3-({[2-({4-[(Dipropan-2-ylphosphoryl)methyl]phenyl}amino)-5-(trifluoromethyl)pyrimidin-4-yl]amino}methyl)pyridin-2-yl]-N-methylmethanesulfonamide]	< 1000 nM	< 1000 nM	–	< 1000 nM	< 1000 nM
CCOP(=O)(Cc1ccc(Nc2ncc(C(F)(F)F)c(Nc3ccc(-c4cnn(C[C@H](O)CO)c4)c4c3C(=O)N(C)C4)n2)c(OC)c1)OCC [Example 70, Diethyl [4-({4-[(7-{1-[(2S)-2,3-dihydroxypropyl]-1H-pyrazol-4-yl}-2-methyl-3-oxo-2,3-dihydro-1H-isoindol-4-yl)amino]-5-(trifluoromethyl)pyrimidin-2-yl}amino)-3-methoxybenzyl]phosphonate]	< 1000 nM	–	–	< 1000 nM	< 1000 nM
CNC(=O)c1ccccc1Nc1nc(Nc2ccc(CP(=O)(OCCOC)OCCOC)cc2OC)ncc1C(F)(F)F [Example 221, Bis(2-methoxyethyl) (3-methoxy-4-{[4-{[2-(methylcarbamoyl)phenyl]amino}-5-(trifluoromethyl)pyrimidin-2-yl]amino}benzyl)phosphonate]	< 1000 nM	–	< 1000 nM	–	–
CN(c1ncccc1CNc1nc(Nc2ccc(CP(C)(C)=O)cc2)ncc1C(F)(F)F)S(C)(=O)=O [Example 12, N-[3-({[2-({4-[(Dimethylphosphoryl)methyl]phenyl}amino)-5-(trifluoromethyl)pyrimidin-4-yl]amino}methyl)pyridin-2-yl]-N-methylmethanesulfonamide]	< 1000 nM	1000 to 10000 nM	–	1000 to 10000 nM	1000 to 10000 nM
CCOP(=O)(Cc1ccc(Nc2ncc(C(F)(F)F)c(Nc3ccccc3C(=O)NC)n2)cc1)OCC [Example 20, diethyl (4-{[4-{[2-(methylcarbamoyl)phenyl]amino}-5-(trifluoromethyl)pyrimidin-2-yl]amino}benzyl)phosphonate]	< 1000 nM	–	–	< 1000 nM	< 1000 nM
CCOP(C)(=O)Cc1ccc(Nc2ncc(C(F)(F)F)c(Nc3ccc(C4CCC(O)CC4)c4c3C(=O)N(C)C4)n2)cc1 (stereo not drawn) [Example 79, Ethyl (4-{[4-{[7-(4-hydroxycyclohexyl)-2-methyl-3-oxo-2,3-dihydro-1H-isoindol-4-yl]amino}-5-(trifluoromethyl)pyrimidin-2-yl]amino}benzyl)methylphosphinate]	< 1000 nM	–	–	< 1000 nM	< 1000 nM
CCOP(=O)(Cc1ccc(Nc2ncc(C(F)(F)F)c(Nc3ccc(-c4ccn(CCO)n4)c4c3C(=O)N(C)C4)n2)cc1)OCC [Example 142, Diethyl (4-{[4-({7-[1-(2-hydroxyethyl)-1H-pyrazol-3-yl]-2-methyl-3-oxo-2,3-dihydro-1H-isoindol-4-yl}amino)-5-(trifluoromethyl)pyrimidin-2-yl]amino}benzyl)phosphonate]	< 1000 nM	–	< 1000 nM	–	–
CCCCOP(=O)(Cc1ccc(Nc2ncc(C(F)(F)F)c(NCc3cccnc3N(C)S(C)(=O)=O)n2)cc1)OCCCC [Example 26, Dibutyl [4-({4-[({2-[methyl(methylsulfonyl)amino]pyridin-3-yl}methyl)amino]-5-(trifluoromethyl)pyrimidin-2-yl}amino)benzyl]phosphonate]	< 1000 nM	1000 to 10000 nM	–	< 1000 nM	< 1000 nM
CCOP(=O)(Cc1ccc(Nc2ncc(C(F)(F)F)c(Nc3ccc(C4CCN(C)CC4)c4c3C(=O)N(C)C4)n2)cc1)OCC [Example 253, Diethyl (4-{[4-{[2-methyl-7-(1-methylpiperidin-4-yl)-3-oxo-2,3-dihydro-1H-isoindol-4-yl]amino}-5-(trifluoromethyl)pyrimidin-2-yl]amino}benzyl)phosphonate]	< 1000 nM	–	< 1000 nM	–	–
CN(c1ncccc1CNc1nc(Nc2ccc(CP3(=O)OCCCO3)cc2)ncc1C(F)(F)F)S(C)(=O)=O [Example 31, N-methyl-N-[3-({[2-({4-[(2-oxido-1,3,2-dioxaphosphinan-2-yl)methyl]phenyl}amino)-5-(trifluoromethyl)pyrimidin-4-yl]amino}methyl)pyridin-2-yl]methanesulfonamide]	< 1000 nM	< 1000 nM	–	< 1000 nM	< 1000 nM
